Measurements: patent US6407135B1, “Conjugates of dithiocarbamates with pharmacologically active agents and uses therefor” (Medinox, Inc., priority 1997, dated 2002)

Test system: Lewis male rats
Settings: high doses, oral daily days 5-8 and 11-14; naproxen 10 mg/kg, conjugate 18 mg/kg

COc1ccc2cc([C@H](C)C(=O)O)ccc2c1 [Naproxen, (S)-(+)-methoxy-α-methyl-2-naphthaleneacetic acid]
Reduction of swelling compared to control by day 15: approximately 70%
